These results are taken from PubChem BioAssay (NCI).

The structures appear in SMILES notation.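 Grown in 96-well plates, cells were treated for 48 hours with each compound at five concentrations. Insufficient inhibition: endpoint recorded as highest concentration tested. Abbreviation: GI50, concentration required for 50% inhibition of growth. Definition used: TGI = concentration required for complete inhibition of growth.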

What all share (test): DTP human tumour cell line panel, 48 h
The test system of test [1] is UACC-62 melanoma.
The test system of test [2] is SK-MEL-2 melanoma.
Test [3] has as its system PC-3 prostate.
For test [4], the system named is OVCAR-8 ovarian.
Test [5] relates to EKVX NSCLC.
Test [6] concerns UACC-257 melanoma.
Test [7] deals with MALME-3M melanoma.
The test system of test [8] is MDA-MB-231 breast.
The subject of test [9] is NCI-H226 lung.
Test [10] has as its system HT29 colon.

Take `Cc1cc(C)nc(SC2=C(Nc3cccc(Cl)c3C)C(=O)N(Cc3ccccc3)C2=O)n1`: the GI50 (in general, the concentration at which growth is held to half of that of the control) was above 160 µM in [1]; above 160 µM in [2]; above 160000 nM in test [3]; above 160000 nM in [4]; above 160 µM in test [5]; above 160 µM in test [6]. Further, the GI50 in test [7], in test [8], in [9] and in [10] was above 160 µM throughout. In addition, the TGI in test [1], in test [2], in test [3], in test [4], in [5] and in test [6] was above 160 µM throughout. The TGI in test [7], in test [8], in [9] and in test [10] was above 160 µM each time.
Turning to `O=C(c1ccccc1)c1nc2ccc(C(F)(F)F)cc2[n+]([O-])c1C(F)(F)F`, the GI50 in [1] is 33.7 µM; in test [2], 27.5 µM; in [3], 24500 nM; in test [4], 38700 nM; in test [5], 21.1 µM; in test [6] it was 22.7 µM. The GI50 is 47.6 µM in [7], 45.1 µM in test [8], 59 µM in test [9] and 48.6 µM in [10]. Besides, the TGI in test [1], in [2], in [3], in [4], in [5] and in [6] was above 100 µM each time. Also, the TGI in test [7], in [8], in test [9] and in [10] was above 100 µM each time.
As for `C[C@H]1C(Oc2ccc(O)cc2)OC2OC3(C)CCC4[C@H](C)CCC1C24OO3` (some centres not stated), the GI50 in test [1] was 12.3 µM; in test [2], 7.1 µM; in test [3], 251 nM; in [4] it was 2120 nM; in test [5], 6.42 µM; in [6] it was 13.1 µM. Also, the GI50 in test [7] is 14.1 µM; in test [8], 15.8 µM; in test [9], 15.9 µM; in [10] it was 8.86 µM. Also, the TGI (as a rule, the concentration at which net growth stops) came to 25.5 µM in test [1]; 23 µM in [2]; 14.8 µM in [3]; 25.4 µM in test [4]; 23.1 µM in test [5]; 28.4 µM in test [6]. In addition, the TGI amounted to 28.9 µM in test [7], 30.9 µM in test [8], 31.2 µM in test [9] and 27.4 µM in [10].
Regarding `Cc1ccc(S(=O)(=O)Cc2nc(-c3ccc(C(=O)NCc4cccnc4)cc3)oc2C)cc1`, the GI50 in test [1] was above 91.2 µM; in test [2], 5.45 µM; in [3] it was 224 nM; in test [4], below 10 nM; in test [5], above 100 µM; in test [6], above 100 µM. Moreover, the GI50 in [7] was 27.5 µM; in [8] it was 5.78 µM; in test [9], above 100 µM; in [10], 0.0784 µM. Further, the TGI is above 100 µM in test [1]; above 86.3 µM in test [2]; above 100 µM in [3]; above 100 µM in [4]; above 100 µM in test [5]; above 100 µM in test [6]. Also, the TGI in test [7], in [8], in test [9] and in test [10] was above 100 µM each time.
As to `C#Cc1cccc(Nc2nc3ccc([N+](=O)[O-])cc3nc2Nc2cccc(C#C)c2)c1`, the GI50 in [1] is 0.302 µM; in [2] it was 0.26 µM; in test [3], 220 nM; in test [4], 303 nM; in test [5], 0.249 µM; in test [6], 0.207 µM. The GI50 in [7] was 0.235 µM; in test [8], 0.281 µM; in test [9], 0.251 µM; in test [10] it was 0.229 µM. Besides, the TGI in [1] worked out at 1.2 µM; in test [2] it was 0.742 µM; in test [3], 1.17 µM; in test [4], 1.46 µM; in test [5] it was 0.987 µM; in test [6], 0.602 µM. Further, the TGI in [7] came out at 0.614 µM; in [8] it was 0.807 µM; in test [9], 1.2 µM; in test [10], 0.562 µM.
As for `O=C1c2c(O)cc(O)cc2OC(c2ccc(O)cc2O)C1O` (configuration not stated), the GI50 in [1] was above 100 µM; in [2], above 100 µM; in test [4], above 100000 nM; in test [6], above 100 µM; in test [7] it was above 100 µM; in test [9], above 100 µM. Further, in [10], the GI50 was above 100 µM. In addition, the TGI in test [1], in test [2], in test [3], in test [4], in test [5] and in test [6] was above 100 µM throughout. Further, the TGI in test [7], in test [8], in test [9] and in test [10] was above 100 µM throughout.
